Patent US11207310B2 (PRILENIA NEUROTHERAPEUTICS LTD., priority 2016, dated 2021)
Like-named read-outs stand apart in the source and are kept apart here.

Legend:
patients with HD [1] = details: 112.5 mg bid; Week 52; Stage 1 BL TFC 11-13
Description: (§1) The TFC scale of the UHDRS is a standardized scale used to assess 5 functional domains associated with disability shown below (occupation, finances, domestic chores (e.g. laundry, washing dishes), activities of daily living, and care level). The TFC score has a range of 0-13 and is a well-established endpoint for trials aiming disease progression. […] The TFC score is accepted by regulators and often considered the most widely accepted tool for disease procession in HD patients. Additionally, TFC is considered the gold standard for measuring HD rate of functional decline. […] The floor and ceiling effects make TFC scores more sensitive to change in early stage HD than in late stage HD.
Domestic Chores: 0=unable, 1=impaired, 2=normal.

patients with HD [2] = details: 45 mg bid; weeks 12 and 26 (Landwehrmeyer 2011); cited from earlier work
neuroblastoma cell line = details: S1R-dependent manner (Geva 2016); cited from earlier work
patients with HD [3] = details: OPEN-HART; for mean change from baseline in TFC: open-label pridopidine 90 mg/day, mean (SD)
Description: Patients with HD experience motor, cognitive and behavioral symptoms that lead to serious, long-term disability. TFC (range 0-13, high scores indicate greater capacity) evaluates patients' capacity to work, handle finances and domestic chores, perform activities of daily living and live independently, and is most sensitive to early changes in disability. TFC was utilized in OPEN-HART and the Coenzyme Q10 studies, CARE-HD and 2CARE.
For this analysis, TFC scores at baseline, 12, 24, and 36 months from OPEN-HART and 2CARE, and TFC scores at baseline, 12, 25, and 30 months from CARE were utilized.

patients with HD [4] = tested on: patients with HD
Description: There are six basic ADLs: eating, bathing, dressing, toileting, transferring (functional mobility) and continence. ADL is scored as follows: a patient requiring total care=0, a patient able to carry out gross tasks only=1, a patient having minimal impairment=2, a patient with no impairment (normal)=3.
as §1
Activities of Daily Living (ADL): 0=total care, 1=gross tasks only, 2=minimal impairment, 3=normal.

## CCCN1CCC(c2cccc(S(C)(=O)=O)c2)CC1 [pridopidine, 4-[3-(methylsulfonyl)phenyl]-1-propyl-piperidine]
Patients with HD [1]
  Change from baseline in UHDRS TFC Domestic Chores, Δ to Placebo: 0.23
Patients with HD [2]
  TMS compared with placebo, pooled analysis of HART and MermaiHD: significantly improved
Neuroblastoma cell line
  secretion of brain-derived neurotrophic factor (BDNF): enhances secretion
Patients with HD [3]; 12 months
  mean change from baseline in TFC: −0.49 (1.60)
Patients with HD [3]; 24 months
  mean change from baseline in TFC: −1.00 (1.92)
Patients with HD [3]; 36 months
  mean change from baseline in TFC: −1.68 (2.22)
Patients with HD [3]; pridopidine 90 mg/day
  TFC decline over time versus placebo in CARE-HD and 2CARE: slower
Patients with HD [3]; 12 months, non-matched cohorts
  difference in the rate of functional decline (TFC) versus placebo arms of CARE-HD and 2CARE: ~1 point
Patients with HD [4]; 45 mg bid, Week 26, ALL
  Change from baseline in UHDRS TFC ADL, Δ to Placebo: 0.12
Patients with HD [4]; 45 mg bid, Week 26, BL TFC<7, p value 0.3596
  UHDRS TFC ADL, change from baseline, Δ to placebo: −0.19
Patients with HD [4]; 45 mg bid, Week 26, BL TFC≥7, p value 0.0176
  UHDRS TFC ADL, change from baseline, Δ to placebo: 0.24
Patients with HD [4]; 45 mg bid, Week 26, Stage 1 BL TFC 11-13
  Change from baseline in UHDRS TFC ADL, Δ to Placebo: 0.65
Patients with HD [4]; 45 mg bid, Week 52, ALL
  Change from baseline in UHDRS TFC ADL, Δ to Placebo: 0.14
Patients with HD [4]; 45 mg bid, Week 52, BL TFC<7, p value 0.178
  UHDRS TFC ADL, change from baseline, Δ to placebo: −0.33
Patients with HD [4]; 45 mg bid, Week 52, BL TFC≥7, p value 0.0019
  UHDRS TFC ADL, change from baseline, Wk 52 Δ to placebo: 0.35
Patients with HD [4]; 45 mg bid, Week 52, Stage 1 BL TFC 11-13
  Change from baseline in UHDRS TFC ADL, Δ to Placebo: 0.62
Patients with HD [4]; 45 mg bid, Week 52, Stage 2 BL TFC 7-10
  Change from baseline in UHDRS TFC ADL, Δ to Placebo: 0.27
Patients with HD [4]; 67.5 mg bid, Week 26, ALL
  Change from baseline in UHDRS TFC ADL, Δ to Placebo: 0.09
Patients with HD [4]; 67.5 mg bid, Week 26, BL TFC<7, p value 0.8518
  UHDRS TFC ADL, change from baseline, Δ to placebo: −0.04
Patients with HD [4]; 67.5 mg bid, Week 26, BL TFC≥7, p value 0.1132
  UHDRS TFC ADL, change from baseline, Δ to placebo: 0.16
Patients with HD [4]; 67.5 mg bid, Week 26, Stage 1 BL TFC 11-13
  Change from baseline in UHDRS TFC ADL, Δ to Placebo: 0.34
Patients with HD [4]; 67.5 mg bid, Week 52, ALL
  Change from baseline in UHDRS TFC ADL, Δ to Placebo: 0.03
Patients with HD [4]; 67.5 mg bid, Week 52, BL TFC<7, p value 0.0671
  UHDRS TFC ADL, change from baseline, Δ to placebo: −0.4
Patients with HD [4]; 67.5 mg bid, Week 52, BL TFC≥7, p value 0.0598
  UHDRS TFC ADL, change from baseline, Wk 52 Δ to placebo: 0.22
Patients with HD [4]; 67.5 mg bid, Week 52, Stage 1 BL TFC 11-13
  Change from baseline in UHDRS TFC ADL, Δ to Placebo: 0.21
Patients with HD [4]; 67.5 mg bid, Week 52, Stage 2 BL TFC 7-10
  Change from baseline in UHDRS TFC ADL, Δ to Placebo: 0.31
Patients with HD [4]; 90 mg bid, Week 26, ALL
  Change from baseline in UHDRS TFC ADL, Δ to Placebo: 0.14
Patients with HD [4]; 90 mg bid, Week 26, BL TFC<7, p value 0.3507
  UHDRS TFC ADL, change from baseline, Δ to placebo: 0.18
Patients with HD [4]; 90 mg bid, Week 26, BL TFC≥7, p value 0.0526
  UHDRS TFC ADL, change from baseline, Δ to placebo: 0.19
Patients with HD [4]; 90 mg bid, Week 26, Stage 1 BL TFC 11-13
  Change from baseline in UHDRS TFC ADL, Δ to Placebo: 0.58
Patients with HD [4]; 90 mg bid, Week 52, ALL
  Change from baseline in UHDRS TFC ADL, Δ to Placebo: −0.01
Patients with HD [4]; 90 mg bid, Week 52, BL TFC<7, p value 0.073
  UHDRS TFC ADL, change from baseline, Δ to placebo: −0.39
Patients with HD [4]; 90 mg bid, Week 52, BL TFC≥7, p value 0.0545
  UHDRS TFC ADL, change from baseline, Wk 52 Δ to placebo: 0.21
Patients with HD [4]; 90 mg bid, Week 52, Stage 1 BL TFC 11-13
  Change from baseline in UHDRS TFC ADL, Δ to Placebo: 0.42
Patients with HD [4]; 90 mg bid, Week 52, Stage 2 BL TFC 7-10
  Change from baseline in UHDRS TFC ADL, Δ to Placebo: 0.16
Patients with HD [4]; 112.5 mg bid, Week 26, ALL
  Change from baseline in UHDRS TFC ADL, Δ to Placebo: 0.17
Patients with HD [4]; 112.5 mg bid, Week 26, BL TFC<7, p value 0.8438
  UHDRS TFC ADL, change from baseline, Δ to placebo: −0.04
Patients with HD [4]; 112.5 mg bid, Week 26, BL TFC≥7, p value 0.0076
  UHDRS TFC ADL, change from baseline, Δ to placebo: 0.27
Patients with HD [4]; 112.5 mg bid, Week 26, Stage 1 BL TFC 11-13
  Change from baseline in UHDRS TFC ADL, Δ to Placebo: 0.7
Patients with HD [4]; 112.5 mg bid, Week 52, ALL
  Change from baseline in UHDRS TFC ADL, Δ to Placebo: 0.03
Patients with HD [4]; 112.5 mg bid, Week 52, BL TFC<7, p value 0.1393
  UHDRS TFC ADL, change from baseline, Δ to placebo: −0.32
Patients with HD [4]; 112.5 mg bid, Week 52, BL TFC≥7, p value 0.0493
  UHDRS TFC ADL, change from baseline, Wk 52 Δ to placebo: 0.23
Patients with HD [4]; 112.5 mg bid, Week 52, Stage 1 BL TFC 11-13
  Change from baseline in UHDRS TFC ADL, Δ to Placebo: 0.46
Patients with HD [4]; 112.5 mg bid, Week 52, Stage 2 BL TFC 7-10
  Change from baseline in UHDRS TFC ADL, Δ to Placebo: 0.15
